Reference: patent US10980813B2, “Antifungal composition” (SEED RESEARCH INSTITUTE CO., LTD., priority 2017, dated 2021)
Values after ≈ are worked out from the molar mass of the structure shown.

Key:
Test in all cases: Antifungal activity, MIC by disc (diffusion) method
[1] = tested on: C. parapsilosis; assay type: cell-based, Candida parapsilosis; conditions: Lodderomyces parapsilosis, YMG agar, 24 hr at 28° C., read-out: MIC (minimum inhibitory concentration) C. parapsilosis
Procedure: (§1) Measurement Method of Antifungal Activity in Various Compounds
(§2) The minimum inhibitory concentration (MIC) was measured by a disc method (diffusion method). The disc method is one kind of the diffusion method, and is a method in which filter paper (disc) impregnated with an antifungal substance at a given concentration is placed on an agar medium (test plate) coated with a test bacterium and cultivated. The disc absorbs water in the medium, diffuses the antifungal substance and forms a given concentration gradient. As a result, the test bacterium forms a growth inhibition zone (circle) in the periphery of the disc, and the level of sensitivity to the antifungal substance is determined from the diameter of the inhibition circle.
(§3) Using the aforementioned method, MIC of various compounds was measured.
(§4) i: In a 100 mL flask, 20 mL of YMG or Mueller Hinton medium is produced.
(§5) ii: A loopful of the test bacterium is dissolved in the medium.
(§6) iii: The medium is cultured at 200 rpm for 24 hr in a rotary shaker set to 28° C.
(§7) i: In a 300 mL flask, 100 mL of YMG or Mueller Hinton agar medium (low melting point agar) is produced.
(§8) ii: After cooling to 37° C.-40° C., preculture medium (1 mL) is added and the mixture is agitated.
(§9) iii: The mixture is dispensed to a square petri dish (size: 100*150*17 mm) by 20 mL each.
(§10) iv: The dish is stood at room temperature until the agar is solidified.
(§11) i: The compound is diluted in ½ dilution series in 10 stages (timely changed according to compound), 50 μL of solution/pulp at each dilution stage is produced, the organic solvent is dried at room temperature and placed on a test plate.
(§12) ii: After culturing T. rubrum for 48 hr and other test bacteria for 24 hr at 28° C. in an incubator, the size of the inhibition circle was measured.
(§13) The medium composition for culture which was used for the aforementioned preculture is shown below.
(§14) [Medium Compositions for Preculture and Test Plate]
(§15) <<YMG Medium>>: For Fungus
(§16) Agar, powder 0.8% * added only when producing test plate

[2] = tested on: T. rubrum; assay type: cell-based; conditions: Trichophyton rubrum, YMG agar, 48 hr at 28° C., read-out: MIC (minimum inhibitory concentration) T. rubrum
Procedure: as §1, §2, §3, §4, §5, §6, §7, §8, §9, §10, §11, §12, §13, §14, §15, §16

[3] = tested on: A. fumigatus; assay type: cell-based; conditions: Aspergillus fumigatus, YMG agar, 24 hr at 28° C., read-out: MIC (minimum inhibitory concentration) A. fumigatus
Procedure: as §1, §2, §3, §4, §5, §6, §7, §8, §9, §10, §11, §12, §13, §14, §15, §16

[4] = tested on: Saccharomyces; assay type: cell-based; conditions: YMG agar, 24 hr at 28° C., read-out: MIC (minimum inhibitory concentration) Saccharomyces
Procedure: as §1, §2, §3, §4, §5, §6, §7, §8, §9, §10, §11, §12, §13, §14, §15, §16

[5] = tested on: T. mentagrophytes; assay type: cell-based; conditions: Trichophyton mentagrophytes, YMG agar, 24 hr at 28° C., read-out: MIC (minimum inhibitory concentration) T. mentagrophytes
Procedure: as §1, §2, §3, §4, §5, §6, §7, §8, §9, §10, §11, §12, §13, §14, §15, §16

SMILES | MIC [1] [µg/mL] | MIC [2] [µg/mL] | MIC [3] [µg/mL] | MIC [4] [µg/mL] | MIC [5] [µg/mL]
O=S1(=O)N=Cc2cccn21 [I-5b] | 16 (≈ 102 µM) | 4 (≈ 25.6 µM) | 16 (≈ 102 µM) | 16 (≈ 102 µM) | 4 (≈ 25.6 µM)
CC12ON1S(=O)(=O)Oc1ccccc12 (centres unmarked) [II-1j] | 8 (≈ 37.5 µM) | 2 (≈ 9.38 µM) | 8 (≈ 37.5 µM) | 8 (≈ 37.5 µM) | 2 (≈ 9.38 µM)
O=S1(=O)N=C(c2ccccc2)CO1 [I-3c] | 8 (≈ 40.6 µM) | 2 (≈ 10.1 µM) | 8 (≈ 40.6 µM) | 8 (≈ 40.6 µM) | 2 (≈ 10.1 µM)
CC1=C(C)C(c2ccccc2)=NS(=O)(=O)N1 [I-2d] | 8 (≈ 33.9 µM) | 2 (≈ 8.46 µM) | 8 (≈ 33.9 µM) | 8 (≈ 33.9 µM) | 2 (≈ 8.46 µM)
O=S1(=O)N=C(c2ccccc2)c2cc(Cl)ccc2N1 [I-1l] | 8 (≈ 27.3 µM) | 2 (≈ 6.83 µM) | 8 (≈ 27.3 µM) | 8 (≈ 27.3 µM) | 2 (≈ 6.83 µM)
O=S1(=O)N=C2C(=COc3ccc(F)cc32)C2ON21 (centres unmarked) [II-6b] | 4 (≈ 14.9 µM) | 1 (≈ 3.73 µM) | 4 (≈ 14.9 µM) | 4 (≈ 14.9 µM) | 1 (≈ 3.73 µM)
O=S1(=O)N=C(c2ccc(Cl)cc2)CO1 [I-3d] | 8 (≈ 34.5 µM) | 2 (≈ 8.63 µM) | 8 (≈ 34.5 µM) | 8 (≈ 34.5 µM) | 2 (≈ 8.63 µM)
CCCCCCCCN1CC(c2ccccc2)=NS1(=O)=O [I-3e] | 8 (≈ 25.9 µM) | 2 (≈ 6.48 µM) | 8 (≈ 25.9 µM) | 8 (≈ 25.9 µM) | 2 (≈ 6.48 µM)
O=S1(=O)N=Cc2cc(F)ccc2O1 [I-1a] | 4 (≈ 19.9 µM) | 1 (≈ 4.97 µM) | 4 (≈ 19.9 µM) | 4 (≈ 19.9 µM) | 1 (≈ 4.97 µM)
O=S1(=O)OCC2(c3ccccc3)ON21 (centres unmarked) [II-3c] | 8 (≈ 37.5 µM) | 2 (≈ 9.38 µM) | 8 (≈ 37.5 µM) | 8 (≈ 37.5 µM) | 2 (≈ 9.38 µM)
O=S1(=O)Oc2ccc(F)cc2C2ON21 (centres unmarked) [II-1a] | 4 (≈ 18.4 µM) | 1 (≈ 4.6 µM) | 4 (≈ 18.4 µM) | 4 (≈ 18.4 µM) | 1 (≈ 4.6 µM)
CC1=NS(=O)(=O)Oc2ccccc21 [I-1j] | 8 (≈ 40.6 µM) | 2 (≈ 10.1 µM) | 8 (≈ 40.6 µM) | 8 (≈ 40.6 µM) | 2 (≈ 10.1 µM)
O=S1(=O)Oc2c(Cl)cc(Cl)cc2C2ON21 (centres unmarked) [II-1h] | 4 (≈ 14.9 µM) | 1 (≈ 3.73 µM) | 4 (≈ 14.9 µM) | 4 (≈ 14.9 µM) | 1 (≈ 3.73 µM)
